Activity calls are given as the source filed them. The rule behind the calls is not given here.

The target of data set [1] is Replicase polyprotein 1ab (Severe acute respiratory syndrome-related coronavirus) (UniProt P0C6X7). The following applies: dose 5.0 µM, time 30.0 min.
Data set [2] has as its target Replicase polyprotein 1ab (Severe acute respiratory syndrome coronavirus 2) (UniProt P0DTD1). Particulars: dose 5.0 µM, time 30.0 min, values are per cent of control.
Data set [3] addresses T1, mRNA cap guanine-N(7) methyltransferase (Homo sapiens, UniProt O43148). Particulars: dose 5.0 µM, time 30.0 min.
Data set [4] deals with Replicase polyprotein 1ab (Severe acute respiratory syndrome coronavirus 2, UniProt P0DTD1).
Data set [5] concerns the target Replicase polyprotein 1ab (Severe acute respiratory syndrome-related coronavirus, UniProt P0C6X7).
For data set [6], the target named is T1, mRNA cap guanine-N(7) methyltransferase.
The target in another data set is Nonstructural protein 5 (Dengue virus, UniProt V5TFZ2). Set-up: species or system dengue virus type 3.
The subject of data set [7] is Severe acute respiratory syndrome coronavirus 2. The following applies: time 30.0 min.
The nature of data set [8]: Cytotoxicity against Green monkey VeroE6/TMPRSS2 cells assessed as reduction in cell viability upto 10 uM by CellTiter Blue assay. The format is toxicity, cell-based. The following applies: chlorocebus sabaeus, veroe6/tmprss2, 10 µM. (In general: Resazurin is reduced to fluorescent resorufin, in cell work by metabolically active cells.)
A further data set has as its system SARS-CoV-2. The data set is described as follows: Antiviral activity against SARS-CoV-2 B.1 infected in Green monkey VeroE6/TMPRSS2 cells assessed as viral replication inhibition at 10 uM incubated for 2 days by qRT-PCR analysis relative to control. The format is functional, Severe acute respiratory syndrome coronavirus 2. Also noted: scale not given: the % may be the effect or the level left. (Real-time PCR tracks product formation cycle by cycle.)

T1 sequence (O43148 whole entry): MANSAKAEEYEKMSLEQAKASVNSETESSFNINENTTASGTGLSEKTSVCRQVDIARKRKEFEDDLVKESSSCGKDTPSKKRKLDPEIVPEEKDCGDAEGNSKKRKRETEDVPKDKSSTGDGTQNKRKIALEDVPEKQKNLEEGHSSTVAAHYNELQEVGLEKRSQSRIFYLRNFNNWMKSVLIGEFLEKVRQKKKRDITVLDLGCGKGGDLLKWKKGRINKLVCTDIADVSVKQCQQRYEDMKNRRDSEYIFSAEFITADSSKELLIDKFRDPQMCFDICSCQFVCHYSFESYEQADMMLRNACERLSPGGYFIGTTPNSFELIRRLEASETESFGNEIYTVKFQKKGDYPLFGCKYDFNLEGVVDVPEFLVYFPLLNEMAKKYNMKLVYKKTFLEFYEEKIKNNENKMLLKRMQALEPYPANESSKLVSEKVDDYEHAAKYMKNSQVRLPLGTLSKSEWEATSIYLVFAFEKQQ

Turning to `COc1ccc(S(=O)(=O)N(C)C[C@H]2O[C@@H](n3cc(C#Cc4cnc5ccccc5c4)c4c(N)ncnc43)[C@H](O)[C@@H]2O)cc1C#N`, the inhibition in data set [1] came out at 1.4%; in data set [3], 53%. The same compound registered a residual activity in data set [2] of 0%. For the same compound, the half-maximal inhibitory concentration (IC50) in [4] was 0.72 nM; in data set [5], 0.141 nM; in data set [6], 165000 nM; on Nonstructural protein 5, “Not Active”. Further, the inhibition result in [7] is “inactive”. The figures for the Activity entry (in [8]; with SARS-CoV-2 (time 2 day)) were “Non-Toxic” and 50%, respectively.

Compound `COc1ccc(S(=O)(=O)N(C)C[C@H]2O[C@@H](n3cc(C#Cc4ccccc4)c4c(N)ncnc43)[C@H](O)[C@@H]2O)cc1C#N` had an inhibition in data set [1] of 1%. In data set [2], this compound registered a residual activity of 2.4%. Also, the inhibition result in data set [3] and in data set [7] was “inactive” in each case. Moreover, the IC50 was 1.2 nM in data set [4], 0.8 nM in [5], 56500 nM in data set [6] and “Not Active” against Nonstructural protein 5. Also, the Activity entry in data set [8] is on record as “Non-Toxic”. In addition, in the data set with SARS-CoV-2 (Severe acute respiratory syndrome coronavirus 2, time 2.0 day), the result was inactive.

Broadly, the inhibition is the relative decrease from the control value, in per cent. For orientation: residual activity means the activity still measured, relative to the control. By IC50 is commonly meant the concentration at which inhibition is half-maximal.

Source of the values: ChEMBL document CHEMBL5370550, “Structure-guided optimization of adenosine mimetics as selective and potent inhibitors of coronavirus nsp14 N7-methyltransferases” (Eur J Med Chem, 2023).
